Experimental data published in ChEMBL document CHEMBL5728073, “Compounds that inhibit Mcl-1 protein” (2020).

Assay: Time-Resolved Fluorescence Resonance Energy Transfer (TR-FRET) Assay: The inhibition of the Mcl-1/Bim interaction was measured using a time-resolved fluorescence resonance energy transfer (TR-FRET) assay. The recombinant human Mcl-1 (C-terminally 6ÃHis tagged Mcl-1 containing residues 171-327) was generated at Amgen Inc (Thousand Oaks, Calif.). A biotinylated peptide derived from human Bim …
Description: Time-Resolved Fluorescence Resonance Energy Transfer (TR-FRET) Assay: The inhibition of the Mcl-1/Bim interaction was measured using a time-resolved fluorescence resonance energy transfer (TR-FRET) assay. […] A biotinylated peptide derived from human Bim (residues 51-76) was purchased from CPC Scientific (San Jose, Calif.). The TR-FRET assay was conducted in a 384-well white OptiPlate (PerkinElmer, Waltham, Mass.) in a total volume of 40 uL. […] The reaction plates were further incubated overnight and then were read on an EnvisionÂ multimode reader (PerkinElmer). […] The IC50 values of test compounds were determined from duplicate data by analyzing competition curves using a four-parameter sigmoidal model in GraphPad Prism.

Row | SMILES | IC50 [nM]
1 | C[C@@H]1[C@@H](C)C/C=C\[C@](O)(CN2CCN3CCCC[C@@H]3C2)[C@@H]2CC[C@H]2CN2C[C@@]3(CCCc4cc(Cl)ccc43)COc3ccc(cc32)C(=O)NS1(=O)=O | 0.097
2 | CO[C@@]1(CN2CCN3CCC(F)(F)C[C@@H]3C2)/C=C\C[C@H](C)[C@@H](C)S(=O)(=O)NC(=O)c2ccc3c(c2)N(C[C@@H]2CC[C@H]21)C[C@@]1(CCCc2cc(Cl)ccc21)CO3 | 0.494
3 | CCCCN1CCN(C[C@]2(OC)/C=C/C[C@H](C)[C@@H](C)S(=O)(=O)NC(=O)c3ccc4c(c3)N(C[C@@H]3CC[C@H]32)C[C@@]2(CCCc3cc(Cl)ccc32)CO4)CC1 | 0.225
